Series [1] deals with T1, airway epithelial sodium currents (epithelial Na+ channel, ENaC) (Canis lupus familiaris, UniProt A0A8I3MKE6+A0A8I3Q679+Q95165).
T1 sequence (A0A8I3Q679 1-649): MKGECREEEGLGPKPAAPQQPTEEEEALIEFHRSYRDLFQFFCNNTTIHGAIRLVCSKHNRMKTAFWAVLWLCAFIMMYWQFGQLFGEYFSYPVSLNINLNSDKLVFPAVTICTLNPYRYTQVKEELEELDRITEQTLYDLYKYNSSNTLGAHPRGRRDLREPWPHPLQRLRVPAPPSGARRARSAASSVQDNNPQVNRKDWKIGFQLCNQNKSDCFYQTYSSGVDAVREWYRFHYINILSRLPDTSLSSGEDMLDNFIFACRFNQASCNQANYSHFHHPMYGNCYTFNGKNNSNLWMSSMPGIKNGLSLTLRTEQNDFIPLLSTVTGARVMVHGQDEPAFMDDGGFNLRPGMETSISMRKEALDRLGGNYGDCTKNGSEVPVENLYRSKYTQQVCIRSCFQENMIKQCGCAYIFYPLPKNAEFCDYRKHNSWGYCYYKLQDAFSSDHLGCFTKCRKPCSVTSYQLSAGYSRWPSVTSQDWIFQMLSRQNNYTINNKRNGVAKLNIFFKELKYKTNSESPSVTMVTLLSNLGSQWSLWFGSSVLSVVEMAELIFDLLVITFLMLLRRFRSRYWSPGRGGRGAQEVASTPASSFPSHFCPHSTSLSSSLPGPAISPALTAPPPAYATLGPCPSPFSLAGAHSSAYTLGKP
T1 sequence (Q95165 1-641): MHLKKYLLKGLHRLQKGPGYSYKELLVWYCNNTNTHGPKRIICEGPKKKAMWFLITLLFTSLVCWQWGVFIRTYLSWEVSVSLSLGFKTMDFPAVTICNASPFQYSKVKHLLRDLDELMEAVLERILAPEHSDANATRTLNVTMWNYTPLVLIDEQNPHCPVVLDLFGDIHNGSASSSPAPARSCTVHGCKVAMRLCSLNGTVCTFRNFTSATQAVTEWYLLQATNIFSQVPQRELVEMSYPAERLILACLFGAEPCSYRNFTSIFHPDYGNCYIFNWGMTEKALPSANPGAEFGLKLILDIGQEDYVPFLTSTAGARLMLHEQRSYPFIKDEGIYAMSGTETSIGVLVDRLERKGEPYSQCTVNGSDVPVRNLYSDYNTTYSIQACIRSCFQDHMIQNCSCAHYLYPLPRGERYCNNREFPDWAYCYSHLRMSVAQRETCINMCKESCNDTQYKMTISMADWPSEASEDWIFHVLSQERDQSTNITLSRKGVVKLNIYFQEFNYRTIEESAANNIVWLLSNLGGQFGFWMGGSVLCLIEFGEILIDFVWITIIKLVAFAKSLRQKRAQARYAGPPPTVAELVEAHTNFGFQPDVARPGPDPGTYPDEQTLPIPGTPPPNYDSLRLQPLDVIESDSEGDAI
T1 sequence (A0A8I3MKE6 1-646): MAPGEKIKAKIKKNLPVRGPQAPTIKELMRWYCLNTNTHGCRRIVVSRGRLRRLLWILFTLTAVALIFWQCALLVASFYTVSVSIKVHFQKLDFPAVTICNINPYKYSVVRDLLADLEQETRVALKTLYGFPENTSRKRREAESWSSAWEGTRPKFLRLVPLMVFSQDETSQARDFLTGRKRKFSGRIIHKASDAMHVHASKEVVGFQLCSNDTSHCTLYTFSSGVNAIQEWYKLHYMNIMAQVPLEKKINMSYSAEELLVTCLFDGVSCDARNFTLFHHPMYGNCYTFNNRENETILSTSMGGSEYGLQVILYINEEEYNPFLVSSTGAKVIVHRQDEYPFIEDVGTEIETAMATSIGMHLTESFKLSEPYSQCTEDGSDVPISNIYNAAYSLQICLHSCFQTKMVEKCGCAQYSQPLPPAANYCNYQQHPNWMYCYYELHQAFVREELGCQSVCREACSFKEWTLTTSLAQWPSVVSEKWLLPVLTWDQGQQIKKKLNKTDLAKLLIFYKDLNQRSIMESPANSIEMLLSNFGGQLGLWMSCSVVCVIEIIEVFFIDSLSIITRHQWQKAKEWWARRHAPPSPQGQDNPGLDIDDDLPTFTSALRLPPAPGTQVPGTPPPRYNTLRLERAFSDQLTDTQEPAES
The series is described as follows: Sodium channel blocking activity: inhibition of short circuit current (ISC) in airway epithelial monolayers mounted in Ussing chambers. To be noted: for Fold Amiloride** (PSA 4022 = 100): relative potency for PSA 4022 = 100 using EC50 from PSA 4022 in same run. Type of series: cell-based, canine. On the procedure:
One assay used to assess mechanism of action and/or potency of the compounds of the present invention involves the determination of lumenal drug inhibition of airway epithelial sodium currents measured under short circuit current (ISC) using airway epithelial monolayers mounted in Ussing chambers. Cells obtained from freshly excised human, dog, sheep or rodent airways are seeded onto porous 0.4 micron Snapwell™ Inserts (CoStar), cultured at air-liquid interface (ALI) conditions in hormonally defined media, and assayed for sodium transport activity (ISC) while bathed in Krebs Bicarbonate Ringer (KBR) in Using chambers. All test drug additions are to the lumenal bath with half-log dose addition protocols (from 1×10^−11 M to 3×10^−5 M), and the cumulative change in ISC (inhibition) recorded. All drugs are prepared in dimethyl sulfoxide as stock solutions at a concentration of 1×10^−2 M and stored at −20° C. Eight preparations are typically run in parallel; two preparations per run incorporate amiloride and/or benzamil as positive controls. After the maximal concentration (5×10^−5 M) is administered, the lumenal bath is exchanged three times with fresh drug-free KBR solution, and the resultant ISC measured after each wash for approximately 5 minutes in duration. Reversibility is defined as the percent return to the baseline value for sodium current after the third wash. All data from the voltage clamps are collected via a computer interface and analyzed off-line.
Dose-effect relationships for all compounds are considered and analyzed by the Prism 3.0 program. IC50 values, maximal effective concentrations, and reversibility are calculated and compared to amiloride and benzamil as positive controls.
Statistics: Data were analyzed using SYSTAT for Windows, version 5. Data were analyzed using a two-way repeated ANOVA (to assess overall effects), followed by a paried t-test to identify differences between specific pairs. Significance was accepted when P was less than or equal to 0.05. […] The compounds can be further tested tested for potency in canine bronchial epithelia using the in vitro assay described above. The results for the compounds of the present invention are reported as fold-enhancement values relative to amiloride.

Structures can show the parent of a compound that is named as a salt.

`N=C(NCCCCC1CCN(CC(O)CO)CC1)NC(=O)c1nc(Cl)c(N)nc1N` (centres unmarked) registered a melting point of 188 to 191 °C.
Still for that read-out and setting: under `N=C(NCCCCC1CCN(CCCO)CC1)NC(=O)c1nc(Cl)c(N)nc1N` (as salt: hydrochloride) stands 165 to 167 °C; under `N=C(NCCCCC1CCN(CCN)CC1)NC(=O)c1nc(Cl)c(N)nc1N` (as salt: hydrochloride), more than 200 °C.
On the same count and under the same terms, next, `N=C(NCCCCC1CCN(CCCN)CC1)NC(=O)c1nc(Cl)c(N)nc1N` (as salt: hydrochloride): 105 to 108 °C; `N=C(N)NCCCN1CCC(CCCCNC(=N)NC(=O)c2nc(Cl)c(N)nc2N)CC1` (as salt: hydrochloride): 176 to 178 °C.
Consider `N=C(NCCCCC1CCN(CCO)CC1)NC(=O)c1nc(Cl)c(N)nc1N` [compound 25193], for which the “Fold Amiloride** (PSA 4022 = 100)” value in series [1] is 8 ± 3 (n = 6).
As to `N=C(NCCCCC1CCN(CCCO)CC1)NC(=O)c1nc(Cl)c(N)nc1N` [compound 25310], the “Fold Amiloride** (PSA 4022 = 100)” value in series [1] is reported as 5 ± 2 (n = 8).
The same measure, in the same setting: next, `CC(C)(C)OC(=O)NCCCN1CCC(CCCCNC(=N)NC(=O)c2nc(Cl)c(N)nc2N)CC1` [compound 25452]: 8 ± 1 (n = 6).
As for `N=C(NCCCCC1CCN(CCN)CC1)NC(=O)c1nc(Cl)c(N)nc1N` [compound 25455], the “Fold Amiloride** (PSA 4022 = 100)” value in series [1] is 5 ± 1 (n = 7).
On the same count and under the same terms, next, `N=C(NCCCCC1CCN(CC(O)CO)CC1)NC(=O)c1nc(Cl)c(N)nc1N` (centres unmarked) [compound 25456]: 6 ± 2 (n = 7); `N=C(NCCCCC1CCN(CCCN)CC1)NC(=O)c1nc(Cl)c(N)nc1N` [compound 25510]: 3 ± 9 (n = 7); `CC(C)(C)OC(=O)N=C(NCCCN1CCC(CCCCNC(=N)NC(=O)c2nc(Cl)c(N)nc2N)CC1)NC(=O)OC(C)(C)C` [compound 25569]: 41 ± 9 (n = 9).
For the molecule `Cl.Cl.Cl.N=C(N)NCCCN1CCC(CCCCNC(=N)NC(=O)c2nc(Cl)c(N)nc2N)CC1` [compound 25795], the EC50 in series [1] (lumenal drug addition, bronchial epithelia, mean ± spread (n in cell)) turned out to be 37 ± 5 nM. Moreover, the “Fold Amiloride** (PSA 4022 = 100)” value in series [1] is listed as 18 ± 7 (n = 4).

By melting point is commonly meant the temperature of the solid-liquid transition. As a reminder, the EC50 is the midpoint of the concentration-response curve.
